Counter-ions that a name gives are not always drawn.
Tested on: H1N1 (influenza A/New Caledonia/20/99)
Test: Antiviral effect on A549 cells infected with H1N1
Type: cell-based, H1N1 A/New Caledonia/20/99 virus
Details: Human A549 cells, MOI of 0.1, 48 h post-infection, MUNANA hydrolysis readout
Experimental: The antiviral effect of the compounds of the invention has been tested on A549 cell lines infected with H1N1 (influenza A/New Caledonia/20/99).
Human A549 cells (80,000 cells/well in a 96 well plate) were treated with a range of concentration of test molecules and immediately infected by H1N1 A/New Caledonia/20/99 virus (clinical isolate) at MOI of 0.1 in DMEM/1% Penicillin/streptomycin supplemented with 0.25 μg/ml TPCK trypsin (Sigma) and incubated at 37° C. in 5% CO2. 48 h post-infection, supernatants (25 μl) were collected and transferred into a 96-well black flat-bottom plate, mixed with 25 μl PBS with Ca++/Mg++(Thermo Fisher) and 50 μl of 2′-(4-Methylumbelliferyl)-α-D-N-acetylneuraminic acid sodium salt hydrate stock-solution (20 μM, MUNANA, Sigma). Plates were incubated 1 h at 37° C. and reaction is stopped by adding 100 μl of Stop Solution (glycine 0.1 M pH10.7/25% ethanol). The amount of fluorescent product released by MUNANA hydrolysis (4-MU) was measured in a Tecan spectrophotometer with excitation and emission wavelengths of 365 and 450 nm respectively.

[1] = Influenza A virus, H1N1, A549, 48 h

Structure (SMILES)	IC50 [1]	IC50
COc1cccc(C(=O)Nc2sc3c(c2C(=O)O)CCC(C(C)(C)C)C3)c1 (centres unmarked) [#2]	70 nM	–
COc1ccc(C(=O)Nc2sc3c(c2C(=O)O)CCC(C(C)(C)C)C3)cc1OC (centres unmarked) [#3]	55 nM	–
COc1cc(C(=O)Nc2sc3c(c2C(=O)O)CCC(C(C)(C)C)C3)cc(OC)c1OC (centres unmarked) [#4]	1070 nM	–
COc1ccc(C(=O)Nc2sc3c(c2C(=O)O)CCC(C(C)(C)C)C3)c(F)c1 (centres unmarked) [#5]	60 nM	–
COc1ccc(C(=O)Nc2sc3c(c2C(=O)O)CCC(C(C)(C)C)C3)c(F)c1F (centres unmarked) [#6]	90 nM	–
CC(C)(C)C1CCc2c(sc(NC(=O)c3ccc(OC(F)F)cc3)c2C(=O)O)C1 (centres unmarked) [#7]	34.6 nM	–
CC(C)(C)C1CCc2c(sc(NC(=O)c3ccc(OC(F)(F)F)cc3)c2C(=O)O)C1 (centres unmarked) [#8]	38.5 nM	–
CC(C)(C)C1CCc2c(sc(NC(=O)c3ccc(N4CCOCC4)cc3)c2C(=O)O)C1 (centres unmarked) [#9]	70 nM	–
CC(C)(C)OC(=O)NCCCOc1ccc(C(=O)Nc2sc3c(c2C(=O)O)CCC(C(C)(C)C)C3)cc1 (centres unmarked) [#11]	140 nM	–
CC(C)(C)C1CCc2c(sc(NC(=O)c3ccc(OCCO)cc3)c2C(=O)O)C1 (centres unmarked) [#12]	450 nM	–
O=C(Nc1sc2c(c1C(=O)O)C1CCC2C1)c1ccccc1 (centres unmarked) [#28]	–	1270 nM
Cc1ccccc1C(=O)Nc1sc2c(c1C(=O)O)CCC(c1ccccc1)C2 (centres unmarked) [#45]	338 nM	–
O=C(Nc1sc2c(c1C(=O)O)CCC(c1ccccc1)C2)c1ccccc1 (centres unmarked) [#47A]	–	40 nM
O=C(Nc1sc2c(c1C(=O)O)CCC(c1ccccc1)C2)c1ccccc1 (centres unmarked) [#47B]	–	70 nM
COc1ccc(C(=O)Nc2sc3c(c2C(=O)O)CCC(c2ccccc2)C3)cc1OC (centres unmarked) [#48]	90 nM	–
O=C(Nc1sc2c(c1C(=O)O)CCC(c1ccccc1)C2)c1ccc(O)cc1 (centres unmarked) [#49]	410 nM	–
O=C(Nc1sc2c(c1C(=O)O)CCC(c1ccccc1)C2)c1ccc(OCCO)cc1 (centres unmarked) [#50]	90 nM	–
COCCOc1ccc(C(=O)Nc2sc3c(c2C(=O)O)CCC(c2ccccc2)C3)cc1 (centres unmarked) [#51]	38 nM	–
Cc1cc(F)ccc1N1CCc2c(sc(NC(=O)c3ccccc3)c2C(=O)O)C1 [#53]	140 nM	–
COc1ccc(C(=O)Nc2sc3c(c2C(=O)O)CCN(c2ccc(F)cc2C)C3)c(F)c1 [#55]	410 nM	–
O=C(Nc1sc2c(c1C(=O)O)CCN(c1ccc(F)cc1F)C2)c1ccccc1 [#56]	150 nM	–

Structure (SMILES)	IC50 [1]	IC50
Cc1ccccc1N1CCc2c(sc(NC(=O)c3ccccc3)c2C(=O)O)C1 [#57]	210 nM	–
CC(C)(C)C1CCc2c(sc(NC(=O)c3ccccc3)c2C(=O)O)C1 (centres unmarked) [#66]	–	69.3 nM
CC(C)(C)C1CCc2c(sc(NC(=O)c3ccccc3)c2C(=O)O)C1 (centres unmarked) [#67]	–	91.7 nM
CC(C)(C)C1CCc2c(sc(NC(=O)c3ccc(F)cc3)c2C(=O)O)C1 (centres unmarked) [#68]	120 nM	–
CC1CCCc2sc(NC(=O)c3ccc(N4CCOCC4)cc3)c(C(=O)O)c21 (centres unmarked) [#70]	146 nM	–
CC(C)(C)C1CCc2c(sc(NC(=O)c3ccccn3)c2C(=O)O)C1 (centres unmarked) [#72]	170 nM	–
CC(C)(C)C1CCc2c(sc(NC(=O)c3ccccc3F)c2C(=O)O)C1 (centres unmarked) [#73]	–	180 nM
CC1CCCc2sc(NC(=O)c3ccc(OC(F)F)cc3)c(C(=O)O)c21 (centres unmarked) [#75]	210 nM	–
COc1ccc(C(=O)Nc2sc3c(c2C(=O)O)C(C)CCC3)c(F)c1 (centres unmarked) [#76]	218 nM	–
O=C(Nc1sc2c(c1C(=O)O)CCCC2)c1ccccc1 [#77]	260 nM	–
CC1CCCc2sc(NC(=O)c3ccccc3)c(C(=O)O)c21 (centres unmarked) [#79]	–	292 nM
COc1ccc(C(=O)Nc2sc3c(c2C(=O)O)C(C)CCC3)cc1OC (centres unmarked) [#81]	339 nM	–
CC(C)(C)C1CCc2c(sc(NC(=O)c3cccc(F)c3)c2C(=O)O)C1 (centres unmarked) [#83]	380 nM	–
O=C(Nc1sc2c(c1C(=O)O)CCCCC2)c1ccccc1 [#84]	400 nM	–
Cc1ccccc1C(=O)Nc1sc2c(c1C(=O)O)CCC(C)C2 (centres unmarked) [#86]	410 nM	–
Cc1ccccc1C(=O)Nc1sc2c(c1C(=O)O)CCC(C(C)(C)C)C2 (centres unmarked) [#87]	–	445 nM
CC1CCCc2sc(NC(=O)c3ccccc3)c(C(=O)O)c21 (centres unmarked) [#88]	–	547 nM
CC1CCCCC1C(=O)Nc1sc2c(c1C(=O)O)CCC(C(C)(C)C)C2 (centres unmarked) [#89]	590 nM	–
COc1ccc(C(=O)Nc2sc3c(c2C(=O)O)CCC(C(C)(C)C)C3)nc1 (centres unmarked) [#91]	620 nM	–
O=C(Nc1sc2c(c1C(=O)O)CCN(c1ccc(C(F)(F)F)cc1)C2)c1ccccc1 [#92]	660 nM	–
CC(=O)Nc1ccc(C(=O)Nc2sc3c(c2C(=O)O)CCC(C(C)(C)C)C3)cc1 (centres unmarked) [#93]	660 nM	–

Structure (SMILES)	IC50 [1]	IC50
Cc1ccccc1C(=O)Nc1sc2c(c1C(=O)O)CCCC2 [#95]	723 nM	–
CC(C)(C)C1CCc2c(sc(NC(=O)c3ccccc3C(F)(F)F)c2C(=O)O)C1 (centres unmarked) [#97]	800 nM	–
CC(C)(C)C1CCc2c(sc(NC(=O)c3ccc4c(c3)OC(F)(F)O4)c2C(=O)O)C1 (centres unmarked) [#99]	830 nM	–
CC(C)(C)C1CCc2c(sc(NC(=O)c3ccccc3C(F)(F)F)c2C(=O)O)C1 (centres unmarked) [#100]	–	873 nM
Cn1cc(C(=O)Nc2sc3c(c2C(=O)O)CCC(C(C)(C)C)C3)cn1 (centres unmarked) [#101]	943 nM	–
CC1CCCc2sc(NC(=O)c3cccc(OC(F)F)c3)c(C(=O)O)c21 (centres unmarked) [#102]	970 nM	–
COc1ccccc1C(=O)Nc1sc2c(c1C(=O)O)CCC(C(C)(C)C)C2 (centres unmarked) [#104]	1050 nM	–
CC(C)(C)C(=O)Nc1sc2c(c1C(=O)O)CCC(c1ccccc1)C2 (centres unmarked) [#106]	1100 nM	–
O=C(Nc1sc2c(c1C(=O)O)C(c1ccccc1)CCC2)c1ccc(OC(F)F)cc1 (centres unmarked) [#108]	1170 nM	–
CC(C)(C)C1CCc2c(sc(NC(=O)c3ccccc3C(F)(F)F)c2C(=O)O)C1 (centres unmarked) [#109]	–	1200 nM
Cc1ccoc1C(=O)Nc1sc2c(c1C(=O)O)CCC(C(C)(C)C)C2 (centres unmarked) [#110]	1200 nM	–
Cc1ccccc1C(=O)Nc1sc2cc(C(C)(C)C)ccc2c1C(=O)O [#111]	1370 nM	–
COc1ccc(C(=O)Nc2sc3c(c2C(=O)O)CCN(c2ccc(F)cc2)C3)cc1OC [#113]	1370 nM	–
CC1(C)Cc2c(sc(NC(=O)c3ccccc3)c2C(=O)O)CO1 [#116]	1700 nM	–
Cc1cccc(C)c1C(=O)Nc1sc2c(c1C(=O)O)CCC(C(C)(C)C)C2 (centres unmarked) [#118]	1950 nM	–
COc1ccc(C(=O)Nc2sc3c(c2C(=O)O)CC(C)(C)OC3)cc1OC [#119]	2200 nM	–
CC(C)(C)C1CCc2c(sc(NC(=O)N3CCCCC3)c2C(=O)O)C1 (centres unmarked) [#120]	2270 nM	–
Cc1ccccc1C(=O)Nc1sc2c(c1C(=O)O)CCC2 [#121]	2350 nM	–
O=C(Nc1sc2c(c1C(=O)O)CCC(c1ccc(O)cc1)C2)c1ccccc1 (centres unmarked) [#122]	2370 nM	–
CC(C)(C)C1CCc2c(sc(NC(=O)c3ccncc3)c2C(=O)O)C1 (centres unmarked) [#123]	2700 nM	–
CC(C)(C)C1CCc2c(sc(NC(=O)c3ccc(OCCCN)cc3)c2C(=O)O)C1 (centres unmarked) [#124, hydrochloride salt]	2700 nM	–

Structure (SMILES)	IC50 [1]	IC50
CC(C)(C)C1CCc2c(sc(NC(=O)Cc3ccccc3)c2C(=O)O)C1 (centres unmarked) [#125]	2800 nM	–
Cc1ccccc1C(=O)Nc1sc2c(c1C(=O)O)CCN(C(=O)OC(C)(C)C)C2 [#126]	2900 nM	–
Cc1ccccc1C(=O)Nc1sc2ccccc2c1C(=O)O [#128]	5000 nM	–
Cc1ccccc1C(=O)Nc1sc2c(c1C(=O)O)CCN(CC(C)C)C2 [#129, formate salt]	16600 nM	–
COC(=O)CCCCCOc1ccc(C(=O)Nc2sc3c(c2C(=O)O)CCC(C(C)(C)C)C3)cc1 (centres unmarked) [#172]	510 nM	–
CC1(C)Cc2c(sc(NC(=O)c3ccccc3)c2C(=O)O)C(C)(C)O1 [#175]	740 nM	–
COC1CN(c2ccc(C(=O)Nc3sc4c(c3C(=O)O)CCC4)cc2)C1 [#207]	380 nM	–
O=C(Nc1sc2c(c1C(=O)O)CCC2)c1ccccc1 [#210]	817 nM	–
O=C(Nc1sc2c(c1C(=O)O)CCC2)c1ccc(NCC2CCOCC2)cc1 [#211]	260 nM	–
COC1CN(c2ccc(C(=O)Nc3sc4c(c3C(=O)O)CCCC4)cc2)C1 [#215]	110 nM	–
O=C(Nc1sc2c(c1C(=O)O)CCCC2)c1ccc(NCC2CCOCC2)cc1 [#216]	60 nM	–
COC1CN(c2ccc(C(=O)Nc3sc4c(c3C(=O)O)CC(C)(C)OC4(C)C)cc2)C1 [#217]	510 nM	–
COCCNc1ccc(C(=O)Nc2sc3c(c2C(=O)O)CCC3)cc1 [#231]	890 nM	–
CC1(C)Cc2c(sc(NC(=O)c3ccc(NC4CCOCC4)cc3)c2C(=O)O)C(C)(C)O1 [#232]	1380 nM	–
CC1(C)Cc2c(sc(NC(=O)c3ccc(NCC4CCOCC4)cc3)c2C(=O)O)C(C)(C)O1 [#233]	220 nM	–
COCCNc1ccc(C(=O)Nc2sc3c(c2C(=O)O)CC(C)(C)OC3(C)C)cc1 [#234]	980 nM	–
CC(C)(C)C1CCc2c(sc(NC(=O)c3ccc(F)cc3)c2C(=O)O)C1 (centres unmarked) [#236]	–	131 nM
CC(C)(C)C1CCc2c(sc(NC(=O)c3ccc(F)cc3)c2C(=O)O)C1 (centres unmarked) [#237]	–	211 nM
CC(C)(C)C1CCc2c(sc(NC(=O)c3ccccc3F)c2C(=O)O)C1 (centres unmarked) [#238]	–	310 nM
Cc1ccccc1C(=O)Nc1sc2c(c1C(=O)O)CCC(C(C)(C)C)C2 (centres unmarked) [#239]	–	548 nM

Source: patent publication US11603368B2, “Fused thiophene derivatives and their uses” (ENYO PHARMA, priority 2018, dated 2023)
